According to US20260116892A1, “CRYSTAL FORM OF COMPOUND AND PREPARATION METHOD THEREFOR” (NANJING INNOCARE PHARMA TECH CO., LTD., priority 2022, published 2026):
“Also recorded” adds a separate entry of the source.

What was measured:
Format in all cases: physicochemical
[1] = Suspension competition experiment between the crystalline forms in solution; conditions: equal amount of forms A/B in saturated solution of isopropyl alcohol and water, room temperature, stirring 2 days
Procedure: The transformation relationship between the crystalline forms was studied by a suspension competition experiment in the solution. The suspension competition between the crystalline form A and the crystalline form B was carried out at room temperature. The crystalline form A was obtained by adding equal amount of the crystalline form A/B to the saturated solution of isopropyl alcohol and water with suspending and stirring for 2 days.

[2] = Hygroscopicity assessment by dynamic vapor sorption (DVS); conditions: 25° C.
Procedure: The “hygroscopicity” described in the present invention refers to the characteristic of the substance's ability or degree of absorbing water under the conditions of certain temperature and humidity. Regarding to the characteristic description of hygroscopicity and the definition of hygroscopic weight gain (performing experiments according to the method of guideline 9103 of Pharmacopoeia of the People's Republic of China (2015) Volume IV. experimental conditions: 25° C.±1° C., 80%±2% of relative humidity):
deliquescence: sufficient water absorption to form a solution; very hygroscopic: hygroscopic weight gain of not less than 15%; phygroscopic: hygroscopic weight gain of less than 15% but not less than 2%; slightly hygroscopic: hygroscopic weight gain of less than 2% but not less than 0.2%; not or almost not hygroscopic: hygroscopic weight gain of less than 0.2%.
The dynamic vapor sorption (DVS) diagram described in the present invention was acquired using an Intrinsic dynamic vapor sorption instrument produced by SMS (Surface Measurement Systems Ltd.). The method parameters of the dynamic vapor sorption described in the present invention are as follows: […]
About 30 mg of the crystalline form A of the present invention was taken and subjected to a dynamic vapor sorption test using a dynamic vapor sorption (DVS). […] The XRPD was measured before and after the test.

[3] = Stability assessment of the crystalline form A (solid, accelerated and 12 months)
Excerpt: The “stability” described in the present invention refers to that neither degradation of the crystalline form has been found nor transformation to other crystalline form has been detected in the determination of the crystalline form by analytical means such as LC detection, XRPD, etc.
The solid sample of crystalline form A was exposed to high temperature, high humidity and light (open) for au one month accelerated stability study to observe the purity of the sample and the stability of the crystalline form.
The solid sample of crystalline form A was placed under the 30° C./65% RH (closed) for a 12 months stability study to observe the purity of the sample and the stability of the crystalline form (XRPD pattern).

[4] = 12 months, 30° C./65% RH (closed)
[5] = Acceleration for 1 month (25° C., 90% ± 5% RH), open
[6] = Acceleration for 1 month (60° C.), open
[7] = Acceleration for 13 days (10 days of light exposure, 3 days of UV exposure), open

Structure (SMILES) | Thermodynamic stability / transformation in suspension competition [1] | Crystalline form before and after DVS test (XRPD) ([2]; 0% RH to 95% RH) | Weight gain (DVS) ([2]; 80% relative humidity) [%] | Purity (%) ([3]; 0 month (start of stability study)) | Crystalline form (XRPD) [3, 4] | Purity (%) [3, 4] [%] | Stability (conclusion in words) ([3]; 60° C. 1 month, 25° C./90%±5% RH 1 month, light 13 days, 30° C./65% RH 12 months) | Crystalline form (XRPD) [3, 5] | Purity (%) [3, 5] [%] | Crystalline form (XRPD) [3, 6] | Purity (%) [3, 6] [%] | Crystalline form (XRPD) [3, 7] | Purity (%) [3, 7] [%]
C[C@H]1CNC(=O)Nc2cnn3ccc(nc23)N2C[C@@H](F)C[C@@H]2c2cc(F)cnc2O1 [crystalline form A, (2^2R,2^4S,5S)-2^4,3^5-difluoro-5-methyl-4-oxa-7,9-diaza-1(5,3)-pyrazolo[1,5-a]pyrimidin-3(3,2)-pyridin-2(1,2)-pyrrolidincyclononan-8-one] | better thermodynamic stability | remained unchanged | 0.46 | 98.9 | Unchanged | 99.4 | stable state; also recorded: good stability | Unchanged | 98.5 | Unchanged | 98.3 | Unchanged | 99.4
C[C@H]1CNC(=O)Nc2cnn3ccc(nc23)N2C[C@@H](F)C[C@@H]2c2cc(F)cnc2O1 [crystalline form B, (2^2R,2^4S,5S)-2^4,3^5-difluoro-5-methyl-4-oxa-7,9-diaza-1(5,3)-pyrazolo[1,5-a]pyrimidin-3(3,2)-pyridin-2(1,2)-pyrrolidincyclononan-8-one] | can be transformed into the crystalline form A |  |  |  |  |  |  |  |  |  |  |  | 
